Key:
[1] = Evaluation of the storage stability in an aqueous solution (UV-Vis spectra); format: physicochemical; conditions: dilute aqueous solution, room temperature, after 60 days
Experimental: (Evaluation 2) Evaluation of the Storage Stability in an Aqueous Solution
SM-108 obtained in Example 1 and hydrochloric acid salt of SM-108 obtained in Example 3 were dissolved into water to dilute aqueous solutions. UV-Vis spectra of those solutions were recorded just after making solutions and after leaving at room temperature for 60 days.

[2] = Evaluation of the storage stability in crystalline state by visual observation; format: physicochemical; conditions: autoclave at 120° C. under a saturated vapor of water for 30 minutes
Experimental: (Evaluation 1) Evaluation of the Storage Stability in Crystalline State by Visual Observation
SM-108 [2] obtained in Example 1 and benzensulfonic acid salt of SM-108 [5] obtained in Example 2 were placed in an autoclave at 120° C. under a saturated vapor of water for 30 minutes.

[3] = clinical trial by Sumitomo Pharmaceuticals in 1980s; cited from earlier work
[4] = Storage stability (general statements); format: physicochemical; conditions: solid; no test conditions given

SMILES	change of UV-Vis absorption spectrum of aqueous solution [1]	colour of the crystalline substance after treatment (visual observation) [2]	clinical effect against MDS and CML [3]	storage stability [4]	colour of aqueous solution [1]
NC(=O)c1nc[nH]c1O [SM-108, 4-Carbamoyl-5-hydroxyimidazole]	a broad absorption appeared in the visible-light region	turned indigo-blue	excellent effects	poor storage stability	–
NC(=O)c1nc[nH]c1O.O=S(=O)(O)c1ccccc1 [benzensulfonic acid salt of SM-108 [5], benzenesulfonic acid salt of SM-108]	–	remained colorless	–	–	–
Cl.NC(=O)c1nc[nH]c1O [hydrochloric acid salt of SM-108]	did not change at all	–	–	–	remained colorless

Source: patent publication US8664405B2, “Sulfonic acid salt compound of 4-carbamoyl-5-hydroxy-imidazole derivative” (Fujifilm Corporation, priority 2007, dated 2014)
